{"source": "patent US20240101664A1", "about": "“TREATMENT OF PERITONEAL, PLEURAL, AND PERICARDIUM ADHESIONS” (UTI LIMITED PARTNERSHIP, priority 2020, published 2024)", "key": {"[1]": {"test_system": "Gata6+ cavity macrophages", "experiment": "Open-pouch intravital microscopy: cavity macrophage recruitment/aggregation at transmesothelial laser injury", "format": "in vivo, mouse", "details": "for number of macrophages attaching/aggregating at the injury (normalized macrophage count): 30 min post transmesothelial laser injury, intraperitoneal treatment 20 min before", "procedure": "The following neutralizing antibodies (versus isotype controls) and reagents were intraperitoneally tested for their effect on macrophage recruitment: anti-mouse CD18 (100 μg per mouse, GAME-46, BD Pharmingen)+anti-mouse CD29 (100 μg per mouse, HM β31-1, BD Pharmingen) versus isotype rat IgG1, κ (100 μg per mouse, BioXcell)+hamster IgG (100 μg per mouse, eBioscience); anti-mouse CD162 (100 μg per mouse, 4RA10, BD Pharmingen) versus isotype rat IgG1 (100 μg per mouse, eBioscience); anti-human CD9 (10 μg per mouse, ALB 6, Santa Cruz) versus isotype mouse IgG1 (BD Biosciences). Heparin (Sandoz) was diluted in sterile saline to reach final dose of 100-1000 U per mouse. Argatroban (Sigma-Aldrich) was dissolved in DMSO at 20 mg/ml and diluted with saline to reach a final concentration of 300 μg per mouse. Hirudin (Multiplate Hirudin Blood Tube, Roche) was dissolved in saline and injected intraperitoneally at a dose of 1 tube per mouse. Polyinosinic acid (poly(I)) and polycytidylic acid (poly(C)) were purchased as potassium salt (Sigma-Aldrich) and dissolved in double-distilled water according to manufacturer's instructions to 5 mg/ml and 20 mg/ml, respectively. Immediately before experiments, the poly(C) stock solution was diluted with double-distilled water to a final concentration of 5 mg/ml. Both poly(I) and poly(C) were then diluted with saline to reach a final dose of 250 μg per mouse. A total of […] Anti-mouse Marco antibody (ED31, Biorad MCA1849) versus rat IgG1 Isotype control (eBRG1, eBioscience 16-4301-85) was injected intraperitoneally in a total volume of 140 μl PBS per mouse. A volume of 100 μl anti-mouse thrombocyte depletion serum (Cedarlane, CLAD31440) versus normal rabbit serum (Cedarlane, CLSD403) was injected intra venously 24 hours before imaging.\nMice used for IVM were 8-10 weeks old weighted an average of 20 g. Mice in each experiment were of the same sex. If not specified otherwise, mice were generally treated pharmacologically or with neutralizing antibodies 20 min before imaging. Mice were anesthetized with a mixture of ketamine hydrochloride (200 mg/kg, Rogar/SBT) and xylazine hydrochloride (10 mg/kg, MTC Pharmaceuticals). After anesthesia, the tail vein was cannulated for administration of additional anesthetic, antibodies, or other reagents in certain experiments.\nThe pouch model IVM (FIG. 1) was prepared with the mouse in supine position. Thermal support was given with a heated stage to maintain 37° C. body temperature. The fur and skin above the ventral abdominal wall were aseptically cleaned with 70% ethanol and then removed. Care was taken not to open the peritoneal cavity. If the peritoneal cavity was accidentally opened, the mouse was immediately euthanized. Staining antibody or dye was intraperitoneally injected with a 28G needle in midline about 10 mm above the symphysis. After withdrawing the needle, a suture was placed to seal the hole caused by the injection. This suture was then used to immobilize a part of the peritoneum onto the coverslip. For this, the mouse was placed in a semi-prone position. Placing a cotton tip with slight top to bottom pressure helped to further increase imaging stability yet preserved a connection between the imaging pouch and peritoneal cavity so that peritoneal fluid movement was preserved. The closed pouch was prepared by applying more pressure on the cotton tip which allowed us to separate the pouch from the peritoneal cavity in terms of fluid movement. After IVM, all mice were immediately euthanized.\nImages were exported as uncompressed .tif files and analyzed using ImageJ (55). Tracking was generally performed in an automated fashion using the TrackMate plugin (56). The cell shown in FIG. 1J was tracked manually. Cell counts and injury size was measured manually in ImageJ. Three-dimensional visualizations and volume quantifications were performed in Imaris software. […]"}, "[2]": {"test_system": "cells isolated from abdominal cavity (peritoneal fluid sample)", "experiment": "Aggregometry of human peritoneal fluid cells", "format": "cell-based", "details": "ATPgs 100 uM, CaCl 2 mM, Poly(I)/Poly(C) 2 mg/ml; phase contrast", "procedure": "Cells were isolated from abdominal cavity by laparotomy or laparascopy, lavaged with 200 ml saline and stored on ice. The cell samples were transferred through 70 um filters into 50 ml falcon tubes and spun at 300 g for 5 min at 4 degree. The pellet was resuspended in HBSS without Ca and without Mg. For aggregometry cells were exposed to: EDTA final concentration 2 mM; ATPgs final concentration 100 uM; CaCl final concentration 2 mM; and Poly(I)/Poly(C) final concentration 2 mg/ml. The final volume of 100 uL was attained with HBSS. Cells from one patient were exposed to three different conditions: EDTA alone (negative control); ATP/Poly(C); ATP/Poly(I). Image with phase contrast was captured (FIG. 14)."}, "[3]": {"test_system": "macrophage disappearance reaction", "details": "intraperitoneal administration; hypersensitivity reaction or Escherichia coli; cited from earlier work"}, "[4]": {"test_system": "peritoneal cavity macrophages", "experiment": "Aggregometry of isolated peritoneal macrophages", "format": "cell-based, mouse", "details": "37° C., 400 rpm", "procedure": "Macrophages were isolated by peritoneal lavage as described above with the use of 2 mM EDTA containing HBSS instead of PBS. Macrophages were centrifuged at 300 g for 5 min in a 50-ml polystyrene tube. The pellet (with approximately 100 μl of fluid remaining with 3×10^6 cells) was diluted in HBSS containing 2 mM Ca^2+ to a final volume of 400 μl. It was then transferred to a aggregometry cuvette, which was warmed to 37° C. and continuously stirred (400 rpm). Light transmission was recorded on a 700 Whole Blood/Optical Lumi-Aggregometer (Chrono-log) and was expressed in arbitrary units with buffer representing 100% transmission and washed macrophage suspension 0% transmission, respectively. Agonists and calcium were added to reach a Ca^2+ concentration of 4 mM total or 2 mM free calcium in a buffer containing 2 mM EDTA. The preparation of platelet aggregometry was performed as previously described (53). Washed platelets (50 μl with 5×10^5 platelets per microliter) were diluted into 110 μl of Tyrode-HEPES buffer containing 2 mM Ca^2+ and 100 μg/ml human fibrinogen. Agonists (ATP, thrombospondin) were added at the indicated concentrations to the continuously stirred platelet suspension. Murine neutrophils were isolated from the bone marrow of wild-type C57Bl/6, mice as previously described (46). Briefly, bone marrow was collected from the femurs and tibias of euthanized mice, and neutrophils were isolated using a discontinuous Percoll gradient consisting of a Percoll solution (9 ml of Percoll and 1 ml 10× of HBSS) diluted to 72%, 64%, and 52% in 1×HBSS. Following centrifugation, the neutrophil band was removed and washed in HBSS. Cell pellets were resuspended in HBSS containing either 2 mM Ca2^+ or EDTA. Aggregometry was performed as described above."}, "[5]": {"test_system": "focal thermal injury of the parietal peritoneum", "experiment": "Peritoneal focal thermal injury healing", "format": "in vivo, mouse", "details": "3 days after injury; wound area and mesothelial coverage; poly(C) control", "procedure": "Abdominal-wall-flap IVM was used to visualize the mesothelium and epigastric blood vessels (FIG. 2A, FIG. 3, F-I). Mice were placed in supine position on heated stage to maintain 37° C. body temperature. The fur and skin above the ventral abdominal wall were removed and then aseptically cleaned with 70% ethanol. Staining antibodies (anti-mouse podoplanin and anti-mouse F4/80 as described above) were injected. After mice were incubated for 10 min on a heated stage, the peritoneum was incised with an inverted U-shaped incision ranging from directly below the xyphoid process to the inguinal ligament on both sides. This created a perfused flap of peritoneum and the rectus abdominis muscles. The flap was washed with 1 ml of PBS and placed directly on the glass coverslip of the heated stage for imaging of abdominal wall or epigastric blood vessels.\n(§1) For surgical procedures, mice were 8-12 weeks old with a body weight >20 g. Mice in each experiment were of the same sex. Mice were treated before surgery with poly(I), poly(C), liposomes, or diphtheria toxin as described above. Anesthesia was induced and maintained with isoflurane. Eye lubricant was topically applied and buprenorphine (0.1 mg/kg) was subcutaneously administered.\nThe peritoneal focal thermal injury was adapted from the focal thermal liver injury that was previously described (46). The skin was incised in midline. […]"}, "[6]": {"test_system": "focal thermal lesions of liver", "experiment": "Focal thermal hepatic injury healing", "format": "in vivo, mouse", "details": "7 d after injury", "procedure": "Intravital liver imaging was performed as previously described (45). Exposed tissues were visualized with a Leica SP8 DIVE inverted microscope equipped with 4 Tune, a tunable in vivo detection system and a multiphoton light path. All images shown here were acquired using a HC FLUOTAR L 25×/0.95 W objective with water as immersion medium and 2× digital zoom. Fluorescent moieties were excited with a tunable InSight ×3 ultrafast laser (Spectra-Physics) at 800-1000 nm. Signal was detected using external, extremely sensitive non-descanned hybrid detectors. Second harmonic generation by collagen was recorded by tuning the detector to excitation wavelength divided by two ±20 nm. Leica LAS X software was used to drive the microscope.\nas §1\nFocal thermal injury in the liver was performed as previously described (49). In brief, a mini-laparotomy was made just below the xyphoid to expose the liver. Three focal injuries were induced on the surface of the liver using the tip of a heated 30G needle mounted on an electrocautery device. […]"}, "peritoneal adhesions": {"test_system": "peritoneal adhesions", "experiment": "Peritoneal-button injury model of post-surgical peritoneal adhesions", "format": "in vivo, mouse", "procedure": "as §1\nFor the peritoneal button injuries, skin was incised in midline. The peritoneal cavity was accessed through midline laparotomy. Standardized lesions were induced as previously described (47). In brief, a small portion of the peritoneum was grasped and ligated at its base using 4-0 Prolene suture (Ethicon), creating a standardized peritoneal button. This was repeated for a total of four buttons, one in each quadrant. Finally, peritoneum and skin were sutured with 6-0 Prolene (Ethicon) running suture.\nPrior to sacrifice, mice were anesthetized (10 mg/kg xylazine hydrochloride and 200 mg/kg ketamine hydrochloride). Laparotomies were performed in an inverted U-shape. Adhesion were scored based on their tensile strength and vascularization (Table 2) as previously described (51). The animal was subsequently euthanized and perfused with 2 mM EDTA and 4% PFA containing PBS. Peritoneal buttons/adhesions were excised and post-fixated in 4% PFA containing PBS for 2-4 hours. Tissue staining and clearing was performed as previously described (52). […] Then the biopsies were incubated with fluorescently conjugated monoclonal antibodies for 1-4 days at 4° C. on a rotation device. […] Signal was detected using external, non-descanned hybrid detectors. Second harmonic generation by collagen was recorded by tuning the detector to excitation wavelength divided by two ±20 nm. […]\nMouse peritoneal lavage was performed in anesthetized animals by injection and aspiration of three times 5 ml of sterile ice-cold PBS containing 2 mM EDTA into the peritoneal cavity and subsequent retrieval. […] Samples were run using BD FACS Canto flow cytometer and analyzed using FlowJo software (Tree Star). […]"}, "[7]": {"details": "intravital imaging following poly(I) administration"}}}
{"compound": "Hirudin", "values": [{"measurement": "number of macrophages attaching/aggregating at the injury (normalized macrophage count)", "setting": "[1]", "value": "did not replicate this effect"}]}
{"compound": "Polycytidylic acid [Poly(C)]", "values": [{"measurement": "aggregates of human peritoneal fluid cells", "setting": "[2]", "value": "large aggregate observed"}]}
{"compound": "CC1CNc2c(cccc2S(=O)(=O)N[C@@H](CCCNC(=N)N)C(=O)N2CC[C@@H](C)C[C@@H]2C(=O)O)C1", "note": "(some centres unmarked) [argatroban, Argatroban]", "values": [{"measurement": "number of macrophages attaching/aggregating at the injury (normalized macrophage count)", "setting": "[1]", "value": "did not replicate this effect"}]}
{"compound": "Heparin", "values": [{"measurement": "number of macrophages attaching/aggregating at the injury (normalized macrophage count)", "setting": "[1]", "value": "significantly reduced the number of attaching cells"}, {"measurement": "macrophage disappearance reaction", "setting": "[3]", "value": "inhibit the macrophage disappearance reaction"}]}
{"compound": "Polyinosinic acid [poly(I)]", "values": [{"measurement": "number of macrophages attaching/aggregating at the injury (normalized macrophage count)", "setting": "[1]", "value": "significantly decreased macrophage aggregation"}, {"measurement": "initial adhesion to the wound", "setting": "[1]; [7]", "value": "left relatively intact"}, {"measurement": "macrophage-macrophage aggregate formation over time", "setting": "[1]; [7]", "value": "significant decrease"}, {"measurement": "macrophage aggregation in vitro", "setting": "[4]", "value": "prevent macrophage aggregation in vitro"}, {"measurement": "healing of focal thermal injury of the parietal peritoneum", "setting": "[5]", "value": "prolonged healing"}, {"measurement": "healing of focal thermal lesions of liver", "setting": "[6]", "value": "similarly affected"}, {"measurement": "reduction of cavity macrophage numbers in the peritoneal lavage after surgery", "setting": "peritoneal adhesions; 3 hours post-surgery, flow cytometry", "value": "only partially inhibited"}, {"measurement": "recruitment of cavity macrophage aggregates from the peritoneal fluid to the buttons", "setting": "peritoneal adhesions; within 3 hours post-surgery", "value": "could be reduced"}, {"measurement": "number and tenacity of peritoneal adhesions", "setting": "peritoneal adhesions; within 7 days post-surgery", "value": "significantly reduced"}, {"measurement": "aggregates of human peritoneal fluid cells", "setting": "[2]", "value": "no aggregates"}]}
{"compound": "Nc1ncnc2c1ncn2[C@@H]1O[C@H](COP(=O)(O)OP(=O)(O)OP(=O)(O)O)[C@@H](O)[C@H]1O", "note": "[adenosine triphosphate]", "values": [{"measurement": "macrophage aggregation in vitro", "setting": "[4]", "value": "accelerate macrophage aggregation"}]}
{"compound": "O=C(O)CN(CCN(CC(=O)O)CC(=O)O)CC(=O)O", "note": "[EDTA]", "values": [{"measurement": "macrophage aggregation in vitro", "setting": "[4]", "value": "inhibited"}]}
